The values that follow come from patent publication US12390425B1, “Use of tyrosol as a physiological enhancer of creatine and its application in continuous high intensity exercise” (MolTek Nutrition Co., Ltd, priority 2024, dated 2025).

Common to all, as to assay type: in vivo
Test [1] has as its system mice. Description: Grip strength test during continuous high-intensity exercise (Experiment 2). The note with it: first grip strength test; Ty 75 mg/kg, CR 260 mg/kg, Ty+CR 75+260 mg/kg, 4 weeks.
For test [2], the system named is mice. Described as above. The note with it: for Percentage change of muscle strength (grip strength relative to first exercise): gavage daily 4 weeks: Ty 75 mg/kg tyrosol, CR 260 mg/kg creatine monohydrate, Ty+CR 75 mg/kg+260 mg/kg. As to the method:
Animal Experiment 1: Six-week-old mice were used. After one week of acclimation to the environment, the mice were randomly divided into the following groups:
(§1) Control Group: Normal diet, serving as the control group.
(§2) Ty Group: Normal diet, with 75 mg/kg tyrosol administered by gavage daily.
(§3) CR Group: Normal diet, with 260 mg/kg creatine monohydrate administered by gavage daily.
(§4) Ty+CR Group: Normal diet, with 75 mg/kg tyrosol+260 mg/kg creatine monohydrate administered by gavage daily.
(§5) This regimen continued for 4 weeks. The first grip strength test was conducted 30 minutes after the last gavage. The grip strength of the mice's limbs was measured using a grip strength meter. After a 1-hour rest, the mice underwent the first exhaustive swimming exercise. […] The mice were then placed in a weighted swimming tank at a water temperature of 30±1° C. for the exhaustive swimming test. Exhaustion was considered if the mice touched the bottom of the tank three consecutive times within 30 seconds. The detector recorded the mice's bottom-touching instances, and upon determining exhaustion, the swimming tank automatically lifted the mice, recording the exhaustive swimming time.
(§6) 24 hours after the first swimming exercise, the second grip strength test and exhaustive swimming exercise were conducted using the same methods, recording grip strength data and exhaustive swimming time. The third and fourth grip strength tests and exhaustive swimming exercises were conducted 24 hours after the previous exercise, recording the respective data. The gavage regimen remained unchanged during the intervals.
Note: The data compared each group's grip strength in subsequent exercises to their grip strength in the first exercise, reflected the difference in grip strength from the initial value.

The test system of test [3] is mice. Description: Weighted exhaustive swimming test during continuous high-intensity exercise (Experiment 2). Conditions: for Percentage change of exhaustive exercise time (relative to first exercise): gavage daily 4 weeks: Ty 75 mg/kg tyrosol, CR 260 mg/kg creatine monohydrate, Ty+CR 75 mg/kg+260 mg/kg; for Exhaustive swimming exercise time compared to control group, FIG. 2 / Trend of exhaustive swimming exercise time during continuous exercise, FIG. 2: Ty 75 mg/kg, CR 260 mg/kg, Ty+CR 75+260 mg/kg; for Exhaustive swimming exercise time compared to control group, FIG. 2: 4 weeks; for Trend of exhaustive swimming exercise time during continuous exercise, FIG. 2: four exercises 24 h apart. Here is the method: After one week of acclimation to the environment, the mice were randomly divided into the following groups:
as §1, §2, §3, §4, §5, §6
Note: The data compared each group's exhaustive exercise time in subsequent exercises to their exhaustive exercise time in the first exercise, reflected the difference in exhaustive exercise time from the initial value.

Another test relates to skeletal muscle of mice. Description: Phosphocreatine and creatine levels in dissected leg skeletal muscle after continuous interval electrical stimulation (Experiment 1). The note with it: for Creatine (CR) level in skeletal muscle / Phosphocreatine (PCr) level in skeletal muscle / Total creatine (TCr) level in skeletal muscle: 2 weeks diet: CR 5% creatine monohydrate, Ty+CR 1% tyrosol and 5% creatine monohydrate, mean±SE; for Total creatine (TCr) level in skeletal muscle: sum of PCr and CR. Here is the method:
Animal Experiment: Thirty 8-week-old mice were prepared and acclimated to the laboratory environment for one week before being randomly divided into three groups. Control Group: Normal diet with no added active ingredients, serving as the control group. CR Group: Normal diet supplemented with 5% creatine monohydrate. Ty+CR Group: Normal diet supplemented with 1% tyrosol and 5% creatine monohydrate.
After two weeks of feeding, the mice were anesthetized, and the leg skeletal muscles were dissected, showing clear connective tissue without blood. For muscle contraction tests via electrical stimulation, the muscles were first incubated in a specific physiological buffer solution for 10 minutes to recover from dissection. The muscles were then clamped with aluminum forceps and stimulated using platinum electrodes and a capacitor alternating polarity discharge.
The muscles were subjected to 250 ms electrical stimulation with six intervals, each interval progressively shortened from 4 s to 1 s. After six interval stimulations, a 1-minute observation period followed before the next round, totaling four rounds. The left and right leg muscles of each mouse were labeled, and subjected to the aforementioned electrical stimulation test.
Phosphocreatine (PCr) and creatine (CR) levels were immediately measured in the dissected right leg muscles after the electrical stimulation test. The dissected left leg muscles of all groups were measured for phosphocreatine and creatine levels 5 minutes after the test. Total creatine (TCr) levels were the sum of phosphocreatine and creatine levels. Standard fluorescence assay was used to determine phosphocreatine and creatine levels in muscle samples extracted with perchloric acid precipitation.
Note: Values are expressed as mean±SE, in mmol/kg dry weight.

Test [4] has as its system mice. Description: Grip strength test during continuous high-intensity exercise (Experiment 3). As to the method: (§7) Animal Experiment 2: Six-week-old mice were used. After one week of acclimation to the environment, the mice were randomly divided into the following groups:
as §1
(§8) Ty 1 Group: Normal diet, with 2.6 mg/kg tyrosol administered by gavage daily.
(§9) CR 1-3 Groups: Normal diet, with 65 mg/kg, 390 mg/kg, and 1300 mg/kg creatine monohydrate administered by gavage daily.
(§10) Ty+CR 1-4 Groups: Normal diet, with 2.6 mg/kg tyrosol+65 mg/kg creatine monohydrate, 130 mg/kg tyrosol+130 mg/kg creatine monohydrate, 390 mg/kg tyrosol+1300 mg/kg creatine monohydrate, and 2.6 mg/kg tyrosol+1300 mg/kg creatine monohydrate administered by gavage daily.
With the exception of groups Ty 1, CR 1, and Ty+CR 1 which were fed for 8 weeks, all other dosing groups were fed for 4 weeks, with one daily gavage. Groups CR 3, Ty+CR 3, and Ty+CR 4 received their daily gavage dose in two separate administrations each day. Half of the control group was fed for 4 weeks, and the other half for 8 weeks. The first grip strength test was conducted 30 minutes after the last gavage, followed by the first exhaustive swimming exercise after a 1-hour rest. Grip strength and swimming exercise methods were the same as previously described. 24 hours after the first swimming exercise, the second grip strength test and exhaustive swimming exercise were conducted using the same methods, recording grip strength data and exhaustive swimming time. The third and fourth grip strength tests and exhaustive swimming exercises were conducted 24 hours after the previous exhaustive swimming exercise, recording grip strength data and exhaustive swimming time. Groups CR 3 and Ty+CR 4 underwent up to the eighth grip strength test and exhaustive swimming exercise, maintaining the same exercise methods. During the intervals, the gavage regimen for each group remained unchanged.

Test [5] deals with mice. Description: Weighted exhaustive swimming test during continuous high-intensity exercise (Experiment 3). Here is the method:
as §7, §1, §8, §9, §10
With the exception of groups Ty 1, CR 1, and Ty+CR 1 which were fed for 8 weeks, all other dosing groups were fed for 4 weeks, with one daily gavage. Groups CR 3, Ty+CR 3, and Ty+CR 4 received their daily gavage dose in two separate administrations each day. Half of the control group was fed for 4 weeks, and the other half for 8 weeks. The first grip strength test was conducted 30 minutes after the last gavage, followed by the first exhaustive swimming exercise after a 1-hour rest. Grip strength and swimming exercise methods were the same as previously described. […]

The mark [6] stands for this setting: 5 min later after electrical stimulation.
Setting [7] is: immediately after electrical stimulation.
[8] abbreviates: CR 1: 65 mg/kg creatine monohydrate, Ty+CR 1: 2.6 mg/kg tyrosol+65 mg/kg creatine monohydrate, 8 weeks.

With `OCCc1ccc(O)cc1` [Ty, tyrosol], in the test with mice [1], the “Muscle strength (grip strength) compared to control group, FIG. 1” value was “did not show a significant increase in muscle strength”. For the same molecule, the “Percentage change of muscle strength (grip strength relative to first exercise)” value in the test with mice [2] (First exercise) was 1; in the test on mice [2] (Fourth exercise), 85.05%; with mice [2] (Second exercise) it was 97.40%; in the test on mice [2] (Third exercise), 96.55%. Also, the figures for the “Percentage change of exhaustive exercise time (relative to first exercise)” value in the test on mice [3] (Fourth exercise), in the test with mice [3] (Second exercise) and in the test on mice [3] (Third exercise) were 88.45%, 97.13% and 94.54%, respectively. For the same molecule, in the test with mice [3], the “Exhaustive swimming exercise time compared to control group, FIG. 2” value is “significantly higher than that of the control group mice”. Further, the “Trend of exhaustive swimming exercise time during continuous exercise, FIG. 2” value in the test on mice [3] was “declined to varying degrees”.

Take `CN(CC(=O)O)C(=N)N.O` [CR, creatine monohydrate]: the “Muscle strength (grip strength) compared to control group, FIG. 1” value with mice [1] is recorded as “significantly increased compared to the control group”. The “Creatine (CR) level in skeletal muscle” value in the test with skeletal muscle of mice (setting [6]) was 22.7 ± 2.8 mmol/kg dry weight; with skeletal muscle of mice (setting [7]) it was 49.2 ± 3.7 mmol/kg dry weight. Moreover, the “Phosphocreatine (PCr) level in skeletal muscle” value in the test on skeletal muscle of mice (setting [6]) is recorded as 39.7 ± 2.2 mmol/kg dry weight; in the test with skeletal muscle of mice (setting [7]) it was 13.4 ± 1.2 mmol/kg dry weight. For the same molecule, the “Total creatine (TCr) level in skeletal muscle” value in the test on skeletal muscle of mice (setting [6]) came out at 62.4 ± 3.0 mmol/kg dry weight; in the test on skeletal muscle of mice (setting [7]), 62.6 ± 4.0 mmol/kg dry weight. Moreover, in the test on skeletal muscle of mice (immediate vs 5-min-later data within each group), the “Decrease of creatine levels 5 minutes after end of muscle contraction (creatine conversion)” value was 53.86%. The “Levels of creatine, phosphocreatine and total creatine compared to control group” value in the test on skeletal muscle of mice (immediately after stimulation or 5 minutes later) is given as “higher than those in the control group”. Besides, the “Muscle strength (grip strength) compared to control group, FIG. 4” value in the test with mice [4] (setting [8]) was “significantly increased the muscle strength of the mice”. In addition, the “Muscle strength (grip strength) compared to control group, FIG. 3” value in the test on mice [4] (CR 2: 390 mg/kg creatine monohydrate, Ty+CR 2: 130 mg/kg tyrosol+130 mg/kg creatine monohydrate, 4 weeks) is “significantly higher than that in the control group”. The “Trend of muscle strength (grip strength) during continuous exercise, FIG. 3” value in the test on mice [4] (CR 2: 390 mg/kg creatine monohydrate, Ty+CR 2: 130 mg/kg tyrosol+130 mg/kg creatine monohydrate, four exercises) was “marked decline in muscle strength”. In addition, the “Percentage change of muscle strength (grip strength relative to first exercise)” value with mice [2] (First exercise) is reported as 1; with mice [2] (Fourth exercise) it was 76.10%; in the test with mice [2] (Second exercise), 89.24%; in the test on mice [2] (Third exercise), 83.81%. Besides, the “Trend of muscle strength (grip strength) in subsequent exercises, FIG. 1” value in the test with mice [2] (four exercises 24 h apart, CR 260 mg/kg, Ty+CR 75+260 mg/kg) was “decline rate in the creatine group was also rapid”. Further, the “Percentage change of exhaustive exercise time (relative to first exercise)” value was 1 in the test with mice [3] (First exercise), 81.88% in the test with mice [3] (Fourth exercise), 95.26% in the test with mice [3] (Second exercise) and 88.10% with mice [3] (Third exercise). Also, the “Exhaustive swimming exercise time compared to control group, FIG. 2” value in the test on mice [3] was “did not improve the endurance of the mice at the beginning”. Besides, the “Trend of exhaustive swimming exercise time during continuous exercise, FIG. 2” value in the test on mice [3] is on record as “declined to varying degrees”. In the test with mice [5] (setting [8]), the “Endurance time (exhaustive swimming) compared to control group, FIG. 6” value is reported as “did not improve the endurance time of mice”. The “Endurance (exhaustive swimming time), FIG. 5” value in the test on mice [5] (CR 2: 390 mg/kg creatine monohydrate, 4 weeks) is “able to enhance the endurance of mice and prolong exercise time”.
